According to US7202239B2, “Cyclohexylphenyl carboxamides tocolytic oxytocin receptor antagonists” (Wyeth, priority 2001, dated 2007):

- melting point: 127 to 129 °C
Structure (SMILES): O=C(c1ccc(C2CCCCC2)cc1)N1Cc2cccn2Cc2ccccc21 [Example 4, 10-(4-Cyclohexyl-benzoyl)-10,11-dihydro-5H-pyrrolo[2,1-c][1,4]benzodiazepine]
